Test results taken from ChEMBL document CHEMBL4699509, “Asaroidoxazines from the Roots of Asarum asaroides Induce Apoptosis in Human Neuroblastoma Cells” (J Nat Prod, 2020).
The source made the active and inactive calls. The rule behind the calls is not given here.

Tests used:
[1] = system: SH-SY5Y; assay: Cytotoxicity against human SH-SY5Y cells assessed as reduction in cell viability by CCK8 assay; format: functional, cell-based
[2] = system: SH-SY5Y; assay: Induction of apoptosis in human SH-SY5Y cells assessed as nuclear condensation at 30 uM by Hoechst 33342 staining based inverted fluorescent microscopic method (reference value: 2.1%); format: functional
[3] = system: SH-SY5Y; assay: Induction of apoptosis in human SH-SY5Y cells assessed as nuclear condensation at 1 uM by Hoechst 33342 staining based inverted fluorescent microscopic method (reference value: 2.1%); format: functional
[4] = system: SH-SY5Y; assay: Induction of apoptosis in human SH-SY5Y cells assessed as nuclear condensation at 1 to 30 uM by Hoechst 33342 staining based inverted fluorescent microscopic method; format: functional, cell-based; conditions: dose microM 1-30
[5] = system: SH-SY5Y; assay: Induction of apoptosis in human SH-SY5Y cells assessed as nuclear fragmentation at 1 to 30 uM by Hoechst 33342 staining based inverted fluorescent microscopic method; format: functional, cell-based; conditions: dose microM 1-30
[6] = system: SH-SY5Y; assay: Induction of apoptosis in human SH-SY5Y cells assessed as increase in caspace-3/7 expression at 1 to 30 uM after 12 hrs by Caspase-Glo assay; format: functional, cell-based; conditions: dose microM 1-30, time 12.0 hrs
[7] = system: SH-SY5Y; assay: Induction of apoptosis in human SH-SY5Y cells assessed as decrease in ATP level at 1 uM by CellTiter-Glo assay relative to control; format: functional; set-up: scale not given: the % may be the effect or the level left
[8] = system: SH-SY5Y; assay: Induction of apoptosis in human SH-SY5Y cells assessed as decrease in ATP level at 30 uM by CellTiter-Glo assay relative to control; format: functional; set-up: scale not given: the % may be the effect or the level left

COc1ccc(OC)c2c1-c1c3c(cc4c(=O)onc(c14)[C@H]2SCC(N)=O)OCO3
Activity [1]: Dose-dependent effect | IC50 [1]: 2.7 µM | Activity [2]: 70.9% | Activity [3]: 36.8% | Activity [4]: Active | Activity [5]: Active | Activity [6]: Active | Activity [7]: 57.8% | Activity [8]: 51.4%

COc1ccc(OC)c2c1cc1c3c(cc4c(c32)OCO4)C(=O)N1
Activity [1]: Dose-dependent effect | IC50 [1]: 21.2 µM

COc1cc(OC)c2c(c1)-c1c3c(cc4c(=O)onc(c14)[C@H]2SCC(N)=O)OCO3
Activity [1]: Dose-dependent effect | IC50 [1]: 11.2 µM
